One data set relates to HBV DNA. As to the kind of experiment: Antiviral activity: inhibition of HBV DNA in supernatant of HepG 2.2.15 cells (dot blot hybridization). It is filed as cell-based, hepatitis B virus (HBV). As to conditions: for IC50: Hepatitis B virus, HepG2.2.15, 192 h, read-out: IC50 (inhibition of the compounds on HBV DNA); for SI: selectivity index, TC50/IC50, HepG 2.2.15 cells. Here is the method: The antiviral effects of the compounds according to the present invention was determined following the methods described by Sells et al. (M. A. Sells, M. L. Chen, g. Acs, Proc. Natl. Acad. Sci., 1987, 84, 1005-1009) and Korba et al., (B. E. Korba, J. L. Gerin, Antiviral Research, 1992, 19. 55-70).
(§1) The antiviral assays were carried out in 96-well microtitre plates. Only growth medium and HepG 2.2.15 cells were added to the first vertical row of the plate, as a blank control.
(§2) Stock solutions of the test compounds (50 mM) were initially dissolved in DMSO, and further dilutions were prepared in the growth medium of HepG 2.2.15 cell. The compounds according to the present invention, usually in a test concentration of 100 μg/ml (1st test concentration), were pipetted into each well in the second vertical test row of the microtitre plate and subsequently diluted by 2 times each time, up to 2^10-fold, using the growth medium plus 2% of foetal calf serum (volume 25 p. 1).
(§3) 225 μl of a HepG 2.2.15 cell suspension (5×10^4 cells/ml) in the growth medium plus 2% foetal calf serum were then added to each well of the microtitre plate.
(§4) The assay mixture was incubated at 37° C., 5% CO2 for 4 days. The supernatant was subsequently siphoned off and discarded, and 225 μl of freshly prepared growth medium were added to each well. Once more, the compounds according to the present invention were added, in a volume 25 μl of solution. The mixtures were incubated for another 4 days.
The supernatants were subsequently harvested and siphoned onto in vacuum 96-well dot blot chambers covered with a nylon membrane (in accordance with the instructions of the manufacturer).
Determination of the Antiviral Activity
After transfer of the supernatants onto the nylon membrane of the blot apparatus (see above), the supernatants of the HepG 2.2.15 cells were denatured (1.5 M NaCl/0.5 M NaOH), neutralized (3 M […]/0.5 M Tris HCl, pH 7.5) and washed (2×SSC). The DNA was subsequently baked onto the membrane By incubation of the filters at 120° C. for 2-4 hours.
The viral DNA of the treated HepG 2.2.15 cells on the nylon filter membrane was usually detected using non-radioactive digoxigenin-labelled hepatitis B-specific DNA probes, which were in each case labelled with digoxigenin, purified and used for hybridization in accordance with the instructions of the manufacturer.
Briefly speaking, the prehybridization and hybridization were carried out in 5×SSC, 1× a blocking agent, 0.1% N-lauroylsacosine, 0.02% SDS and 100 μg of DNA from herring sperm. The prehybridization was carried out at 60° C. for 30 minutes and the specific hybridization was carried out using 20 to 40 ng/ml of the digoxigenated denatured HBV-specific DNA (14 hours, 60° C.). The filler membrane was subsequently washed and the antibody against digoxigenin of HBV DNA was determined.
The digoxigenin-labelled DNA was detected immunologically in accordance with the instructions of the manufacturer.
Briefly speaking, the filler membranes were washed and prehybridized in the blocking agent (in accordance with the instructions of the manufacturer), and then hybridized for 30 minutes using an anti-DIG antibody previously coupled to an alkaline phosphatase. After washing, a substrate of alkaline phosphoesterase, CSPD, was added, incubated with the filter for 5 minutes, subsequently wrapped in a plastic film and incubated at 37° C. for a further 15 minutes. The chemiluminescene signals of the Hepatitis B-specific DNA were measured by exposition of the filters on an X-ray film (incubating for 10 minutes to 2 hours, depending on strength of the signals). The half-maximum inhibitory concentration (IC50) was determined.
The half-maximum inhibitory concentration (IC50) means the concentration of the compound according to the present invention at which the hepatitis B-specific band was reduced by 50% in comparison with an untreated sample.

Data set [1] in a line: Determination of the cytotoxicity in HepG 2.2.15 cells (microscopy, Reed & Muench). The format is cell-based. As to conditions: human, pathological changes at 8 days, read-out: TC50 (half-maximum toxic concentration). The procedure:
as §1, §2, §3, §4
Before the supernatants were harvested for determining the antiviral effect, the HepG 2.2.15 cells were examined by an optical microscopy or by biochemical detecting methods (for example Alamar Blue staining or Trypan Blue staining) for cytotoxic changes.
Determination of the Cytotoxicity
Substances-induced cytotoxic or cytostatic changes in the HepG 2.2.15 cells can be determined by for example a optical microscopy and expressed as changes in the cell morphology. Such substance-induced changes, for example, as cell lysis, vacuolization or changed cell morphology in the HepG 2.2.15 cells was apparent in comparison with those in untreated cells. The pathological changes were observed under a microscope at 8 days as indice, wherein a complete destroy being designated as 4, 75% as 3, 50% as 2, 25% as 1, and no pathological change as 0. The average degree of pathological change and inhibition percentages at various concentrations were calculated, and a half-maximum toxic concentration (TC50) and a maximum non-toxic concentration TC0 were determined according to Reed & Muench methods.
TC50 means the concentration of the compounds according to the present invention at which 50% of the cells have a morphology which is similar to that of the corresponding cell control.

Data set [2] in a line: Solubility of the hydrochloride solid in solvents. It is filed as physicochemical. The procedure: 0.38 g of the object compound obtained in Example 1 was dissolved in 2 ml anhydrous ethanol, to which hydrogen chloride ethyl solution was added dropwise to precipitate a solid, and filtered to obtain an off-white powdery solid 0.41 g, mp 197-199° C.
The mark [3] stands for this setting: HepG 2.2.15 cells, 8 days treatment.

The term IC50 denotes the midpoint of a concentration-inhibition curve. For orientation: melting point means the temperature, or range, at which the solid turns liquid.

Molecules are shown by their SMILES. Like-named read-outs stand apart in the source and are kept apart here.

In the case of `O=C1CCCC2=C1C(c1ccc(F)cc1)N=C(c1cccnc1)N2` (stereo not shown) [Example 8, 2-(pyridin-3-yl)-4-(4-fluorophenyl)-4,6,7,8-tetrahydroquinazolin-5(1H)-one], the IC50 with HBV DNA (setting [3]) was over 31.1 µM. For the same compound, the SI in the data set with HBV DNA was under 4.7. Further, in data set [1], the CC50 at 8 days amounted to 148 µM.
Consider `CC1(C)CC(=O)C2=C(C1)NC(c1cccnc1)=NC2c1ccc(F)cc1` (stereo not shown) [Example 4, 2-(pyridin-3-yl)-4-(4-fluorophenyl)-7,7-dimethyl-4,6,7,8-tetrahydroquinazolin-5(1H)-one], for which the IC50 in the data set with HBV DNA (setting [3]) worked out at 25.3 µM. The same compound returned an SI in the data set on HBV DNA of 5.73. Also, in data set [1], the CC50 at 8 days stood at 145 µM.
In the case of `CC1(C)CC(=O)C2=C(C1)NC(c1cccnc1)=NC2c1ccccc1Cl` (stereo not shown) [Example 7, 2-(pyridin-3-yl)-4-(2-chlorophenyl)-7,7-dimethyl-4,6,7,8-tetrahydroquinazolin-5(1H)-one], the IC50 in the data set on HBV DNA (setting [3]) is 26.2 µM. In the data set with HBV DNA, this compound came in with an SI of 2.57. In addition, the CC50 at 8 days in data set [1] was determined as 67.3 µM.
In the case of `CC1(C)CC(=O)C2=C(C1)NC(c1cccnc1)=NC2c1ccc(F)cc1Cl` (stereo not shown) [Example 1, 2-(pyridin-3-yl)-4-(2-chloro-4-fluorophenyl)-7,7-dimethyl-4,6,7,8-tetrahydroquinazolin-5(1H)-one], the melting point lay within 186 to 187 °C. Further, the concentration for half-maximal inhibition (IC50) in the data set with HBV DNA (setting [3]) is 0.026 µM. In the data set with HBV DNA, the SI came out at 4192. For the same compound, in data set [1], the CC50 at 8 days worked out at 109 µM.
As for `O=C1CCCC2=C1C(c1ccc(F)cc1Cl)N=C(c1cccnc1)N2` (stereo not shown) [Example 3, 2-(pyridin-3-yl)-4-(2-chloro-4-fluorophenyl)-4,6,7,8-tetrahydroquinazolin-5(1H)-one], the IC50 in the data set with HBV DNA (setting [3]) was 25.2 µM. In addition, the SI in the data set on HBV DNA worked out at 9.25. For the same compound, the CC50 at 8 days in data set [1] stood at 233 µM.
As for `CC1(C)CC(=O)C2=C(C1)NC(c1cccnc1)=NC2c1ccc(F)cc1Cl.Cl` (stereo not shown) [Example 2, 2-(pyridin-3-yl)-4-(2-chloro-4-fluorophenyl)-7,7-dimethyl-4,6,7,8-tetrahydroquinazolin-5(1H)-one hydrochloride], in data set [2] (dichloromethane, ethyl acetate, acetone, etc.), the “solubility in dichloromethane, ethyl acetate, acetone, etc.” value is reported as “insoluble”. The “solubility in methanol and ethanol” value in data set [2] (methanol and ethanol) is “soluble slightly”. Further, the solubility in water entry in data set [2] (water) is listed as “very easily soluable”.
In the case of `O=C1CCCC2=C1C(c1ccccc1Cl)N=C(c1cccnc1)N2` (stereo not shown) [Example 9, 2-(pyridin-3-yl)-4-(2-chlorophenyl)-4,6,7,8-tetrahydroquinazolin-5(1H)-one], in the data set on HBV DNA (setting [3]), the IC50 is over 29.6 µM. Besides, in the data set on HBV DNA, the SI is reported as under 5.6. Moreover, the CC50 at 8 days in data set [1] worked out at 167 µM.
`CC1(C)CC(=O)C2=C(C1)NC(c1ccccn1)=NC2c1ccc(F)cc1Cl` (stereo not shown) [Example 12, 2-(pyridin-2-yl)-4-(2-chloro-4-fluorophenyl)-7,7-dimethyl-4,6,7,8-tetrahydroquinazolin-5(1H)-one]: the IC50 in the data set with HBV DNA (setting [3]) was over 26 µM. In the data set with HBV DNA, the SI was under 3.7. Moreover, the CC50 at 8 days in data set [1] was 97 µM.
For `CC1(C)CC(=O)C2=C(C1)NC(c1cccnc1)=NC2c1ccccc1` (stereo not shown) [Example 5, 2-(pyridin-3-yl)-4-phenyl-7,7-dimethyl-4,6,7,8-tetrahydroquinazolin-5(1H)-one], in that order: 22.5 µM, 7.70 and 173 µM.
For `O=C1CCCC2=C1C(c1ccc(F)cc1Cl)N=C(c1c(F)cc(F)cc1F)N2` (stereo not shown) [Example 10, 2-(2,4,6-trifluorophenyl)-4-(2-chloro-4-fluorophenyl)-4,6,7,8-tetrahydroquinazolin-5(1H)-one], in that order: over 24.4 µM, under 3.8 and 94.1 µM.
For `CC1(C)CC(=O)C2=C(C1)NC(c1c(F)cc(F)cc1F)=NC2c1ccc(F)cc1Cl` (stereo not shown) [Example 11, 2-(2,4,6-trifluorophenyl)-4-(2-chloro-4-fluorophenyl)-7,7-dimethyl-4,6,7,8-tetrahydroquinazolin-5(1H)-one], in that order: over 22.9 µM, under 3.2 and 73.7 µM.
Regarding `O=C1CCCC2=C1C(c1ccccc1)N=C(c1cccnc1)N2` (stereo not shown) [Example 6, 2-(pyridin-3-yl)-4-phenyl-4,6,7,8-tetrahydroquinazolin-5(1H)-one], in the data set on HBV DNA, the half-maximal inhibitory concentration (IC50) is over 32.9 µM and the SI is listed as under 4.7. Besides, the CC50 at 8 days in data set [1] was determined as 193 µM.
